Data taken from patent US6413517B1, “Identification of broadly reactive DR restricted epitopes” (Epimmune, Inc., priority 1997, dated 2002).
Where two headings read alike, the source gives them in different places. No end group written: not given here.

Legend:
[1] = molecular target: T1, DRB1*0101 (DR1) (Homo sapiens, UniProt P01903+P01911, A100R/D57E/F55L/F60I/F76Y/I96L/L162R/M171V/P40L/Q125E/R42F/V115G/Y59C); test: biochemical; type: binding
T1 construct: Epstein-Barr virus (EBV) transformed homozygous cell lines were used as sources; endogenous in cells; host or cells: LG2 (EBV-transformed homozygous B cell line)

[2] = molecular target: T2, DRB1*0401 (DR4w4) (Homo sapiens, UniProt P01903+P01911, A100K/A169T/F76Y/I96L/K127E/L162R/M171V/N62H/P40V/Q125Y/R42H/S133A/S149N/S66Y/V115G/V209L/W38E); test: biochemical; type: binding
T2 construct: Epstein-Barr virus (EBV) transformed homozygous cell lines were used as sources; endogenous in cells; host or cells: PREISS (EBV-transformed homozygous B cell line)

[3] = molecular target: T3, DRB1*0701 (DR7) (Homo sapiens, UniProt P01903+P01911, A100R/A102G/A103Q/D57E/D86V/E43K/F76Y/K127E/L162R/M171V/P40G/Q125H/Q99D/R33Q/R42Y/R54Q/S133A/S66F/T210M/V115G/Y107V/Y59L/Y89S); test: biochemical; type: binding
T3 construct: Epstein-Barr virus (EBV) transformed homozygous cell lines were used as sources; endogenous in cells; host or cells: PITOUT (EBV-transformed homozygous B cell line)

[4] = molecular target: T4, DRB1*1501 (DR2w2b) (Homo sapiens, UniProt P01903+P01911); test: biochemical; type: binding
T4 construct: expressed in transfected cells; host or cells: transfected fibroblasts L466.1

[5] = molecular target: T5, DRB5*0101 (DR2w2a) (Homo sapiens, UniProt P01903+Q30154); test: biochemical; type: binding
T5 construct: Epstein-Barr virus (EBV) transformed homozygous cell lines were used as sources; endogenous in cells; host or cells: GM3107 (EBV-transformed homozygous B cell line)

[6] = molecular target: T6, DRB1*0405 (DR4w15) (Homo sapiens, UniProt P01903+P01911, A100R/A169T/D86S/F76Y/I96L/K127E/L162R/M171V/N62H/P40V/Q125Y/R42H/S133A/S149N/S66Y/V115G/V209L/W38E); test: biochemical; type: binding
T6 construct: Epstein-Barr virus (EBV) transformed homozygous cell lines were used as sources; endogenous in cells; host or cells: KT3 (EBV-transformed homozygous B cell line)

[7] = molecular target: T7, DRB1*1101 (DR5w11) (Homo sapiens, UniProt P01903+P01911, A100R/A169T/A87E/I96F/K41T/L162R/M171V/P40S/Q125H/Q178H/Q39Y/Q99D/R42S/S66Y/T262R/V115G/W38E); test: biochemical; type: binding
T7 construct: Epstein-Barr virus (EBV) transformed homozygous cell lines were used as sources; endogenous in cells; host or cells: SWEIG (EBV-transformed homozygous B cell line)

[8] = molecular target: T8, DRB1*1302 (DR6w19) (Homo sapiens, UniProt P01903+P01911, A100E/A169T/K41T/L162R/M171V/P40S/Q125H/Q178H/Q39Y/Q99D/R42S/S66N/T262R/V115G/W38E/Y61H); test: biochemical; type: binding
T8 construct: Epstein-Barr virus (EBV) transformed homozygous cell lines were used as sources; the source of Class II molecules the EBV transformed homozygous cell line H0301; endogenous in cells; host or cells: H0301 (EBV-transformed homozygous B cell line)

[9] = molecular target: T9, DRB1*0802 (DR8w2) (Homo sapiens, UniProt P01903+P01911, A100R/A103L/A169T/F76Y/H45Y/I96F/K41T/L162R/M171V/P40S/Q125H/Q178H/Q39Y/Q99D/R218S/R42G/S66Y/V115G/W38E); test: biochemical; type: binding
T9 construct: Epstein-Barr virus (EBV) transformed homozygous cell lines were used as sources; endogenous in cells; host or cells: OLL (EBV-transformed homozygous B cell line)

[10] = molecular target: T10, DRB1*0901 (DR9) (Homo sapiens, UniProt P01903+P01911, A100R/A103E/D57H/D86V/F55Y/F60I/F76Y/I96F/K127E/L162R/M171V/P40D/Q125H/Q99R/R33Q/R42F/S133A/S66N/T210M/V115G/W38K/Y107V/Y59G/Y89S); test: biochemical; type: binding
T10 construct: Epstein-Barr virus (EBV) transformed homozygous cell lines were used as sources; endogenous in cells

[11] = molecular target: T11, DRB1*1201 (DR5w12) (Homo sapiens, UniProt P01903+P01911, A100R/A169T/D57E/D86V/F55L/H45Y/K41T/L162R/M171V/P40S/Q125H/Q178H/Q39Y/Q99D/R42G/S66L/T262R/V114A/V67L/W38E/Y59H/Y61H/Y89S); test: biochemical; type: binding
T11 construct: Epstein-Barr virus (EBV) transformed homozygous cell lines were used as sources; endogenous in cells; host or cells: Herluf (EBV-transformed homozygous B cell line)

[12] = molecular target: T12, DRB1*0301 (DR3w17) (Homo sapiens, UniProt P01903+P01911, A100K/A102G/A103R/A169T/F55Y/I96L/K41T/L162R/M171V/P40S/Q125H/Q178H/Q39Y/R42S/S66N/T106N/T262R/W38E/Y61H); settings: read-out: Binding Capacity (IC 50% nM) Other Alleles DR3
[13] = molecular target: T12, DRB1*0301 (DR3w17); test: biochemical; settings: Binding Capacity (IC50% nM) DR3
[14] = Binding Capacity (IC 50% nM) DR1,4,7 DRB1
[15] = Binding Capacity (IC 50% nM) DR1,4,7 DR7
[16] = read-out: Binding Capacity (IC 50% nM) Other Alleles DR2w2a
[17] = read-out: Binding Capacity (IC 50% nM) Other Alleles DR4w15
[18] = Binding Capacity (IC50% nM) DR5w11
[19] = read-out: Binding Capacity (IC 50% nM) Other Alleles DR5w11
[20] = Binding Capacity (IC 50% nM) Other Alleles DR6w19
[21] = Binding Capacity (IC50% nM) DR8w2
[22] = read-out: Binding Capacity (IC 50% nM) Other Alleles DR8w2
[23] = Binding Capacity (IC50% nM) DR9
[24] = read-out: Binding Capacity (IC 50% nM) Other Alleles DR9
[25] = Binding Capacity (IC50% nM) DR5w12
[26] = read-out: Binding Capacity (IC 50% nM) Other Alleles DR5w12
[27] = Binding Capacity (IC 50% nM) DR1,4,7 DR4w4
[28] = read-out: Binding Capacity (IC 50% nM) Other Alleles DR2w2b

T7 sequence (P01903 26-254, other chains not shown): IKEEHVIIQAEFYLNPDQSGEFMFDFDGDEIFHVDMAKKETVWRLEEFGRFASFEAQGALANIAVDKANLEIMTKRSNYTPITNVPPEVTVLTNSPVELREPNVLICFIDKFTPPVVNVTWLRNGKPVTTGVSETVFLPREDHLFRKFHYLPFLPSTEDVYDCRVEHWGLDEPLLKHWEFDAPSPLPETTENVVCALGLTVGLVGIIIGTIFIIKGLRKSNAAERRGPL

## CC[C@H](C)[C@H](NC(=O)[C@H](CC(=O)O)NC(=O)[C@H](CC(C)C)NC(=O)[C@@H](NC(=O)CNC(=O)[C@@H](NC(=O)[C@@H](NC(=O)[C@@H](NC(=O)[C@@H](NC(=O)[C@H](C)NC(=O)[C@H](CC(C)C)NC(=O)[C@@H](NC(=O)[C@H](CC(N)=O)NC(=O)[C@H](CO)NC(=O)[C@H](CC(C)C)NC(=O)[C@@H](N)CC(N)=O)C(C)C)[C@@H](C)O)[C@@H](C)CC)[C@@H](C)O)[C@@H](C)O)C(C)C)C(=O)O [Peptide 1136.24]
[1]; [14]
  IC50: < 1000 nM
[2]; read-out: Binding Capacity (IC 50% nM) DR1,4,7 DR4w4
  IC50: > 1000 nM
[3]; [15]
  IC50: < 1000 nM
[4]; Binding Capacity (IC 50% nM) Other Alleles DR2w2b
  IC50: < 1000 nM
[5]; [16]
  IC50: > 1000 nM
[6]; [17]
  IC50: > 1000 nM
[7]; [18]
  IC50: > 10000 nM
[7]; [19]
  IC50: > 1000 nM
[8]; [20]
  IC50: < 1000 nM
[9]; [21]
  IC50: > 10000 nM
[9]; [22]
  IC50: > 1000 nM
[10]; [23]
  IC50: > 10000 nM
[10]; [24]
  IC50: > 1000 nM
[11]; [25]
  IC50: > 10000 nM
[11]; [26]
  IC50: > 1000 nM
[12]
  IC50: > 1000 nM
[13]
  IC50: > 10000 nM

## WLFPRFKFVWVTYASW [Peptide 1136.44.01]
[1]; Binding Capacity (IC50% nM) DR1
  IC50: 526 nM
[1]; [14]
  IC50: < 1000 nM
[2]; [27]
  IC50: < 1000 nM
[2]; Binding Capacity (IC50% nM) DR4w4
  IC50: 780 nM
[3]; Binding Capacity (IC50% nM) DR7
  IC50: > 10000 nM
[3]; read-out: Binding Capacity (IC 50% nM) DR1,4,7 DR7
  IC50: > 1000 nM
[4]; Binding Capacity (IC50% nM) DR2w2b
  IC50: > 10000 nM
[4]; [28]
  IC50: > 1000 nM
[5]; Binding Capacity (IC50% nM) DR2w2a
  IC50: > 10000 nM
[5]; [16]
  IC50: > 1000 nM
[6]; Binding Capacity (IC50% nM) DR4w15
  IC50: 6550 nM
[6]; [17]
  IC50: > 1000 nM
[7]; [18]
  IC50: 4000 nM
[7]; [19]
  IC50: > 1000 nM
[8]; Binding Capacity (IC50% nM) DR6w19
  IC50: > 10000 nM
[8]; read-out: Binding Capacity (IC 50% nM) Other Alleles DR6w19
  IC50: > 1000 nM
[9]; [21]
  IC50: 6360 nM
[9]; [22]
  IC50: > 1000 nM
[10]; [23]
  IC50: > 10000 nM
[10]; [24]
  IC50: > 1000 nM
[11]; [25]
  IC50: > 10000 nM
[11]; [26]
  IC50: > 1000 nM
[12]
  IC50: > 1000 nM
[13]
  IC50: > 10000 nM

## CC(C)C[C@H](NC(=O)[C@H](CC(C)C)NC(=O)CNC(=O)[C@H](C)NC(=O)[C@H](CC(C)C)NC(=O)[C@@H](NC(=O)[C@H](CO)NC(=O)[C@@H](NC(=O)[C@H](C)NC(=O)[C@H](CC(C)C)NC(=O)[C@H](CCCCN)NC(=O)[C@H](Cc1ccc(O)cc1)NC(=O)[C@H](CCCCN)NC(=O)[C@H](CO)NC(=O)[C@@H](N)CCCCN)[C@@H](C)O)C(C)C)C(=O)O [Peptide 1188.16]
[1]; [14]
  IC50: < 1000 nM
[2]; [27]
  IC50: < 1000 nM
[3]; [15]
  IC50: < 1000 nM
[4]; [28]
  IC50: > 1000 nM
[5]; Binding Capacity (IC 50% nM) Other Alleles DR2w2a
  IC50: < 1000 nM
[6]; Binding Capacity (IC 50% nM) Other Alleles DR4w15
  IC50: < 1000 nM
[7]; Binding Capacity (IC 50% nM) Other Alleles DR5w11
  IC50: < 1000 nM
[8]; [20]
  IC50: < 1000 nM
[9]; Binding Capacity (IC 50% nM) Other Alleles DR8w2
  IC50: < 1000 nM
[10]; Binding Capacity (IC 50% nM) Other Alleles DR9
  IC50: < 1000 nM
[11]; [25]
  IC50: > 10000 nM
[11]; [26]
  IC50: > 1000 nM
[12]
  IC50: > 1000 nM
[13]
  IC50: > 10000 nM
